“Also recorded” adds a separate entry of the source. Square brackets hold non-standard residues; d marks the D form. Ends that are not written are not given here. pS = N[C@@H](COP(=O)(O)O)C(=O)O
Assays:
[1] = tested on: psychosine-mediated neurotoxicity; assay: Psychosine-mediated neurotoxicity with GSK3β inhibitor L803; conditions: no experimental details given
fast axonal transport = assay: Vesicle motility assays in isolated axoplasm; type: biochemical, squid Loligo pealii; conditions: for effect on both antero and retrograde axonal transport rates: 5 μM perfused into extruded axoplasm; for effect on both modes of axonal transport: 1 μM and 5 μM psychosine perfused
Protocol: Axoplasm was extruded from giant axons of the squid Loligo pealii (Wood Hole Marine Biological Laboratory) as described previously. Szebenyi et al., Neuron 40:41-52 (2003) and Morfini et al., Nat. Neurosci. 9:907-916 (2006). Sphingolipids were diluted into X/2 buffer (175 mM potassium aspartate, 65 mM taurine, 35 mM betaine, 25 mM glycine, 10 mM HEPES, 6.5 mM MgCl2, 5 mM EGTA, 1.5 mM CaCl2 and 0.5 mM glucose, pH 7.2) supplemented with 2-5 mM ATP and 20 μl was added to perfusion chambers. Preparations were analyzed on a Zeiss Axiomat with a 100×, 1.3 n.a. objective, and DIC optics. […]. Organelle velocities were measured with a Photonics Microscopy C2117 video manipulator (Hamamatsu).
To test whether psychosine exerts a role in neurodegeneration by affecting axonal transport, an experiment was performed using axoplasms isolated from giant squid axons, an approach used to examine the effects on antero and retrograde transport rates of a variety of molecules. Morfini et al., Neuromolecular Med. 2:89-99 (2002).
Whether psychosine is a pathogenic effector capable of triggering axonal defects in the Twitcher mouse was assessed. To test psychosine effect on FAT, a model of vesicular transport based on the squid Loligo Pelai was employed. This approach has been extensively characterized to examine the effects of different pathogenic proteins. Morfini et al., Neuromolecular. Med. 2:89-99 (2002). Candidate molecules were perfused in a microchamber containing the axoplasm preparations and the average motility of MBO was measured over a period of time. This model has played a fundamental role in the discovery of kinesin-1S (Brady, Nature 317:73-75 (1985)) and the regulatory mechanisms of FAT (Morfini et al., Neuromolecular. Med. 2:89-99 (2002); Morfini et al., Embo J. 23:2235-2245 (2004); and Ratner et al., J. Neurosci. 18:7717-7726 (1998)) as well as the pathogenic mechanism of various proteins and neurotoxins (Morfini et al., Proc. Natl. Acad. Sci. USA 104:2442-2447 (2007); Morfini et al., Nat. Neurosci. 9:907-916 (2006); and Pigino et al., Proc. Natl. Acad. Sci. USA 106:5907-5912 (2009)). Furthermore, antero and retrograde modes of transport in squid axoplasm are identical to those of intact axons (Lasek and Brady, Nature 316:645-647 (1985)) and all regulatory mechanisms discovered in the squid axoplasm are identical to the mammalian neuron.
Pure preparations of extruded axoplasm isolated from the squid were perfused with different concentrations of psychosine (or related controls) and the speed of MBO was recorded over time.

PP1 = PP1 enzyme activity assay in cortical neurons incubated with psychosine; type: cell-based, mouse
Protocol: Samples were processed for quantitation of PP1 with the Molecular Probes RediPlate™ 96 EnzChek® Serine/Threonine Phosphatase Assay Kit (Molecular Probe), as described by the manufacturer. Samples were homogenized in buffer (50 mM Tris-HCl pH 7.0, containing 0.1 mM CaCl2, 125 μg/ml BSA, 0.05% Tween 20) using a IKA Ultra-Turrax T8 homogenizer. An equal amount of protein was loaded in each well of the 96-well plate and fluorescence was read at an excitation of 370 nm and an emission of 460 nm.

PKC = conditions: cited from earlier work
primary cortical neurons = assay: Primary cortical neurons incubated with psychosine and control sphingolipids (neurites, MTT assay); conditions: for effect on number of neurites: embryonic primary cortical neurons, psychosine 0.1, 1 and 10 μM
Protocol: Cell cultures of cortical neurons were prepared as previously described. […] E16 pregnant females were sacrificed, the brains of the litter were collected, and the cortex was isolated. The brain was chopped, treated with 0.25% trypsin and then passed through a fire polished pipette. The cells were then plated in DMEM (Mediatech) supplemented with 10% fetal bovine serum (FBS) and, after 2 hours, the medium was changed to Neurobasal medium supplemented with B27. For cell survival, the MTT assay (Chemicon) was performed as indicated by the supplier. Briefly, 5000 cells/well were plated in a 96 well plate, and the stimuli were administered for 24 hours. At the end of the incubation time, the MTT reagent was added and, after 4 hours, the reaction was stopped and the absorbance was read at 570 nm. […] Psychosine, D-Sphingosine, and C6-Ceramide were purchased from Sigma and resuspended in ethanol to the desired concentration.
To test the hypothesis that the presence of psychosine was detrimental to the survival of these neurons, the effect of psychosine treatment on embryonic primary cortical neurons was tested. […] The cytotoxicity of psychosine was determined with the MTT assay, which directly measures mitochondrial activity (FIG. 20L).

[2] = calcium-sensitive dye, Invitrogen; cited from earlier work
Twitcher-YFPax mice = assay: Flecainide treatment of Twitcher-YFPax mice: twitching and axonopathic figures by YFP confocal microscopy; type: in vivo, mouse
Source text: Bechtold et al., Brain 128:18-28 (2005). […] FIG. 23.
To examine whether protection of axons accompanied the flecainide-mediated amelioration of twitching, spinal cord tissue was collected at P30, and longitudinal sections of the ventral white matter were observed by confocal microscopy for axonal integrity, using the YFP expression as reporter.
Spinal cord and sciatic nerves were removed from treated and non-treated mice, providing tissue for regular confocal microscopy. Paraformaldehyde-fixed longitudinal 50-μm thick cryosections of spinal cord were used. Whole mount preparations of sciatic nerves were used for confocal analysis. Nerve samples were thoroughly Z-imaged for YEP excitation on a Zeiss Meta-confocal microscope. The number of fragmented or discontinued axons per area in samples from Twi-YFPax mice (treated and non-treated) were counted and the mean values compared to those from WT-YFPax controls. Plotting these numbers against postnatal days allowed a determination of when axonal damage starts and the extent of the effect of each neuroprotective treatment at any given time. Axonal integrity was determined by visualizing continuous YFP fluorescence along a single axon over several hundreds of microns, while visualization of axonal fragments, varicosities, and/or swellings were considered a sign of axonal damage.

[3] = tested on: EAE, spinal cord injury, and hypoxic injury; conditions: cited from earlier work; for prevention of axonal loss: EAE, spinal cord injury, and hypoxic injury
NCX1 = assay: Immunoblot of NCX1 in spinal cord extracts of flecainide-treated Twitcher mice; type: in vivo, mouse
Protocol: Tissues were isolated and either frozen for long term storage or directly homogenized in lysis buffer (1 mM PMSF, 2 mM Sodium Orthovanadate, 1 mM NaF, 20 mM Tris HCl pH 7.4, 1% Triton X100, 150 mM NaCl, 5 mM MgCl2, 300 nM Okadaic acid). Samples were then briefly sonicated on ice and spun down at 5000 rpm for 5 min to remove the debris. The amount of protein of the supernatant was then quantified with the Bradford assay (Biorad) and equal amount of proteins were loaded on a 4-12% Bis-Tris gel (Invitrogen). After protein determination, samples were diluted to the same concentration and 10-20 μg of total protein electrophoresed on 4-12% Tris-glycine Nupage (Invitrogen) gels at 80 V in MOPS-SDS running buffer. After at 80 mV the gels were transferred for 2 hour at 120 PVDF on a PVDF membrane (Biorad). The membrane was blocked in 5% milk, 1% BSA, 0.05% Tween 20 in Tris Glycine buffer (blocking solution), then probed with primary antibodies overnight at 4° C. and with the secondary horse radish peroxidase conjugated antibodies for 1 hour at room temperature. […] The membrane was washed for at least one hour after the primary and secondary antibody incubations and developed in the Enhanced Luminescence kit (Thermo Scientific). After exposure, the bands were quantified with the software imageJ and the genes of interest were normalized to the relative loading control.

[4] = perfusion with control D-Sphingosine

**Q.** For KEAPPAPPQ[pS]P [L803], which “effect on psychosine-mediated neurotoxicity” value [1] is on record?
**A.** decreased psychosine-mediated neurotoxicity

**Q.** What does the source list for sphingomyelin?
**A.** effect on anterograde mode of fast axonal transport (fast axonal transport; 5 μM perfused): inhibited the anterograde mode of fast axonal transport only; effect on retrograde mode of fast axonal transport (fast axonal transport; 5 μM perfused): did not show any effect on the retrograde mode of transport

**Q.** Which “effect on both antero and retrograde axonal transport rates” value (fast axonal transport) does the source give for chondroitin sulfate here?
**A.** no detectable effect

**Q.** For `C=C1[C@@H](O)[C@@H]2O[C@]3(CC[C@H](/C=C/[C@@H](C)[C@@H]4CC(C)=C[C@@]5(O[C@H](C[C@@](C)(O)C(=O)O)CC[C@H]5O)O4)O3)CC[C@H]2O[C@@H]1[C@@H](O)C[C@H](C)[C@H]1O[C@@]2(CCCCO2)CC[C@H]1C` [okadaic acid], which “prevention of psychosine-induced inhibition of fast axonal transport” value (fast axonal transport; 200 nM okadaic acid co-perfused with 5 μM psychosine) is on record?
**A.** prevented much of the blockage of axonal transport; also recorded: prevented FAT inhibition induced by psychosine

**Q.** Which “prevention of GM1-mediated inhibition of anterograde fast axonal transport” value (fast axonal transport) does the source give for `C[S+]([O-])c1ccc(-c2nc(-c3ccncc3)c(-c3ccc(F)cc3)[nH]2)cc1` (centres unmarked) [SB203580] here?
**A.** prevented GM1-mediated inhibition of anterograde fast axonal transport

**Q.** What about the “prevention of sphingomyelin inhibition of anterograde fast axonal transport” value (fast axonal transport) of the same compound?
**A.** prevented

**Q.** For `CCCCCCCCCCCCC/C=C/[C@@H](O)[C@@H](N)CO[C@@H]1O[C@H](CO)[C@H](O)[C@H](O)[C@H]1O` [psychosine, galactosylsphingosine], which PP1 activity (PP1; acutely purified embryonic cortical neurons incubated with psychosine) is on record?
**A.** PP1 activity was induced; also recorded: dose-dependent increase in PP1 activity

**Q.** What about the PP1 activity (PP1; cortical neurons, incubation with psychosine for 1 hour) of the same compound?
**A.** PP1 activity increased

**Q.** And the inhibition of kinases (PKC)?
**A.** known to inhibit kinases such as PKC

**Q.** What about the “effect on both modes of axonal transport” value (fast axonal transport) of the same compound?
**A.** strong inhibition of both modes of axonal transport

**Q.** What about the “effect on both modes of axonal transport” value (fast axonal transport; listed as Psychosine) of the same compound?
**A.** strongly inhibited both modes of FAT

**Q.** And the “effect on both antero and retrograde axonal transport rates” value (fast axonal transport)?
**A.** rapid reduction of both antero and retrograde axonal transport rates; also recorded: strong inhibitory effect on both antero and retrograde transport

**Q.** And the “effect on number of neurites” value (primary cortical neurons)?
**A.** decrease in the number of neurites

**Q.** What about the “cytotoxicity, MTT assay” value (primary cortical neurons; primary cortical neurons, 1 μM, 24 hours) of the same compound?
**A.** toxic even at low concentrations

**Q.** Which “effect on both antero and retrograde axonal transport rates” value (fast axonal transport) does the source give for Sulfatides here?
**A.** inhibited both anterograde and retrograde modes of fast axonal transport

**Q.** Which Kd [2] does the source give for fluo-4 here?
**A.** 345 nM

**Q.** For `O=C(NCC1CCCCN1)c1cc(OCC(F)(F)F)ccc1OCC(F)(F)F` (centres unmarked) [flecainide], which “onset of twitching (percentage of mice twitching)” value (Twitcher-YFPax mice; 30 mg/kg body weight/day from P5 or P9 until P30, at 15, 20, 25 and 30 days of age) is on record?
**A.** delayed onset of twitching

**Q.** What about the “protection of axons in the spinal cord” value (Twitcher-YFPax mice; daily subcutaneous 30 mg/kg/day starting from P2) of the same compound?
**A.** significantly protected axons in the spinal cord; also recorded: even stronger protective effect

**Q.** And the “reduction of number of structural pathologies (axonopathic figures per area) to motor axons” value (Twitcher-YFPax mice; early treatment from P5, 30 mg/kg/day, spinal cord at P30)?
**A.** about 50%

**Q.** And the “frequency of axonopathic figures in the ventral spinal cord” value (Twitcher-YFPax mice; late treatment from P9, 30 mg/kg/day, spinal cord at P30)?
**A.** not significantly different from that in vehicle-treated animals

**Q.** And the “reduction of axonal degeneration” value ([3]; 30 mg/kg/day, models of demyelinating EAE)?
**A.** sufficient to reduce axonal degeneration

**Q.** And the “prevention of axonal loss” value [3]?
**A.** successfully prevented major axonal loss

**Q.** And the “sodium channel firing, sodium influx and axon protection” value ([3]; models of acute and chronic demyelination)?
**A.** successful in reducing excessive firing of sodium channels, decreasing sodium influx, and protecting axons

**Q.** And the “NCX1 expression in spinal cord” value (NCX1; early flecainide treatment (P5))?
**A.** reduced NCX1 expression at early (P20) and late (P30) ages; also recorded: reduced the expression of NCX1

**Q.** What about the “NCX1 expression in spinal cord” value (NCX1; late flecainide treatment (P9)) of the same compound?
**A.** Reduction of NXC1 was not detected; also recorded: no differences in NCX1 expression

**Q.** Which “prevention of axonal loss” value [3] does the source give for `O=C1NC(=O)C(c2ccccc2)(c2ccccc2)N1` [phenytoin] here?
**A.** successfully prevented major axonal loss

**Q.** Which results are given for `CCCCCCCCCCCCC/C=C/[C@@H](O)[C@@H](N)CO` [D-Sphingosine]?
**A.** effect on speed of anterograde or retrograde transport (fast axonal transport; control lipid perfused): did not affect the speed of anterograde or retrograde transport; transport rate, anterograde FAT (fast axonal transport; [4]): 1.5-2 mm/sec; transport rate, retrograde transport (fast axonal transport; [4]): 1-1.4 mm/sec; effect on number of neurites (primary cortical neurons): did not exert any effect

**Q.** For `CCCCCCCCCCCCC/C=C/[C@@H](O)[C@H](CO)NC(=O)CCCCC` [C6 ceramide, C6-Ceramide], which “effect on number of neurites” value (primary cortical neurons) is on record?
**A.** comparable
